Assay results taken from PubChem BioAssay AID489040 (Sanford-Burnham Center for Chemical Genomics, 2010).
pEC50: −log10 of the molar value. Activity calls are given as the source filed them.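 Rule for the calls: active = mean half-maximal activating concentration from the dose-response fit at or below a set limit; inactive = the rest.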

Each compound was assayed against CHO-XBP1 luciferase reporter, IRE1-XBP1 UPR activation (assay: activators of IRE1-XBP1 UPR arm, dose response, counter-screen for apoptotic UPR arm activators, CHO-XBP1 cells, luminescence (AID 489040);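 note: reporter read after six hours of compound exposure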).
In the case of Oc1ccc(CN2CCC(Cc3ccccc3)CC2)c2cccnc12, the EC50 was > 80 µM (inactive).
With CCOC(=O)c1c(C)oc2c1c(C(c1cccnc1)N1CCCCC1)c(O)c1ccccc12 (centres undefined) the EC50 was > 80 µM (inactive).
In the case of COc1ccc(-n2c(C)cc(C(=O)CCl)c2C)cc1, the pEC50 was 5.33.
With CCN(CC)S(=O)(=O)c1cc(NC(=O)Cn2ncc(Cl)c(Cl)c2=O)ccc1C the EC50 was > 80 µM (inactive).
In the case of COc1cccc2sc(Nc3nc(-c4ccccn4)cs3)nc12, the EC50 was > 80 µM (inactive).
In the case of CN(C)C(=O)CSc1cccc2cccnc12, the EC50 was > 80 µM (inactive).
CCc1ccc2nc(N(CCCN(C)C)C(=O)c3ccc(S(=O)(=O)N(C)C4CCCCC4)cc3)sc2c1 was tested, and the EC50 was > 80 µM (inactive).
With c1ccc(CSC2=NNC(c3ccccn3)S2)cc1 (centres undefined) the EC50 was > 80 µM (inactive).
Work on CN1C(=O)/C(=C/c2cccn2-c2ccc3ccccc3c2)C(=O)NC1=S yielded a pEC50 of 5.10.
In the case of S=C(Nc1ccccc1)Nc1nccs1, the EC50 was > 80 µM (inactive).
In the case of Cc1c(C#N)c(NC(=O)CCl)n(Cc2ccccc2)c1C, the EC50 was > 80 µM (inactive).
For O=C1Nc2ccccc2/C1=C/C(=O)c1cccs1, the EC50 was > 80 µM (inactive).
Work on CCCC[C@@H](C)C[C@@H](C)C(=O)N(C)[C@@H](CC(C)C)C(=O)N[C@H](C(=O)N(C)[C@H](C(=O)N1C[C@@H](O)C[C@H]1C(=O)N1C(=O)C=C[C@@H]1C)C(C)C)C(C)OC(C)=O (some centres undefined) yielded a pEC50 of 4.81.
For CC(C)C(=O)N1CCN(c2ccc(NC(=O)c3ccc([N+](=O)[O-])o3)cc2)CC1, the EC50 was > 80 µM (inactive).
For CCOc1cc(/C=C2\CN(CC)C/C(=C\c3ccc(O)c(OCC)c3)C2=O)ccc1O, the EC50 was > 80 µM (inactive).
In the case of COc1ccc(/C=C2\CN(Cc3ccccc3)C/C(=C\c3ccc(OC)c(O)c3)C2=O)cc1O, the EC50 was > 80 µM (inactive).
S=C1SCN(CCN2CCOCC2)CN1Cc1ccccc1 was tested, and the EC50 was > 80 µM (inactive).
CC(C)c1cccc(-c2ccc3c(c2)S(=O)(=O)c2cccc(C(=O)NCc4ccccc4Cl)c2C3=O)c1 was tested, and the pEC50 was 4.95.
COc1ccc(-c2ccc(-c3nc4c(c(=O)[nH]c(=O)n4Cc4ccccc4)n3C)o2)c([N+](=O)[O-])c1 was tested, and the EC50 was > 80 µM (inactive).
In the case of CC(C)N1C/C(=C/c2ccsc2)C(=O)/C(=C/c2ccsc2)C1, the EC50 was > 80 µM (inactive).
For Cc1ccc2nc(-c3ccc(O)c(O)c3)cn2c1, the EC50 was > 80 µM (inactive).
CCc1cccc(CC)c1NC(=O)/C(C#N)=C/c1ccccc1C(F)(F)F was tested, and the EC50 was > 80 µM (inactive).
In the case of CC(=O)c1cccc(NC(=O)CSc2ncc(C(=O)Nc3ccccc3)c(=O)n2C)c1, the EC50 was > 80 µM (inactive).
COc1ccc(N2CCN(Cc3cc(=O)oc4cc(-c5ccccc5)c(O)cc34)CC2)cc1 was tested, and the EC50 was > 80 µM (inactive).
In the case of COc1cc2nc(NC(=O)c3ccc(Cl)cc3)sc(=O)c2cc1OC, the EC50 was > 80 µM (inactive).
For CCOC(=O)/C(=C\c1ccc(Cl)cc1)c1nc2sc(C)c(C)c2c(=O)[nH]1, the EC50 was > 80 µM (inactive).
In the case of COc1ccc(/C=C/c2nc3cc(-c4ccccc4)ccc3o2)cc1O, the EC50 was > 80 µM (inactive).
O=[N+]([O-])c1ccccc1S(=O)(=O)Nc1cccc2cccnc12 was tested, and the EC50 was > 80 µM (inactive).
Cc1noc2ncnc(Sc3ccc(Br)cc3)c12 was tested, and the EC50 was > 80 µM (inactive).
For CCOC(=O)c1c(C)oc2c1c(C(c1ccccc1)N1CCOCC1)c(O)c1ccccc12 (centres undefined), the EC50 was > 80 µM (inactive).
In the case of COc1ccc(NC(=O)c2sc3nc(N4CCOCC4)c4c(c3c2N)CC(C)(C)OC4)c(OC)c1, the EC50 was > 80 µM (inactive).
In the case of NC(N)=N/N=C/c1ccc(N(c2ccccc2)c2ccccc2)cc1, the EC50 was > 80 µM (inactive).
Cc1ccc(-n2nc3cc(C)c(NC(=S)NC(=O)/C=C/c4ccco4)cc3n2)cc1 was tested, and the EC50 was “inactive”.
In the case of COc1ccc2c(c1OC)C(=O)OC2Nc1nc(-c2ccccc2)cs1 (centres undefined), the EC50 was > 80 µM (inactive).
With O=S(=O)(c1ccc(Cl)cc1)c1snnc1-c1ccccc1 the EC50 was > 80 µM (inactive).
In the case of CCOc1ccc(-c2nnc(SCC(=O)Nc3ccc4c(c3)c3ccccc3n4CC)n2N)cc1, the EC50 was > 80 µM (inactive).
Cc1c(C(=O)c2no[n+]([O-])c2C(=O)c2cnn(C)c2C)cnn1C was tested, and the EC50 was > 80 µM (inactive).
CC1=NN(c2cccc(C(=O)O)c2)C(=O)/C1=C\C=C/c1ccccc1 was tested, and the EC50 was > 80 µM (inactive).
Work on Oc1ccc(/C=N/Nc2ccnc3cc(Cl)ccc23)cc1O yielded a pEC50 of 5.06.
In the case of O=C(CCl)c1ccc(Cc2ncc(C(F)(F)F)cc2Cl)s1, the EC50 was > 80 µM (inactive).
With O=C(NC1CCCC1)C(c1ccc(F)cc1)N(Cc1ccc(Cl)cc1)C(=O)CCl (centres undefined) the EC50 was > 80 µM (inactive).
For Cc1ccccc1S(=O)(=O)NC1OC(=O)C(Cl)=C1Cl (centres undefined), the EC50 was > 80 µM (inactive).
In the case of CCOC(=O)c1ccc(N2C(=O)C=CC2=O)cc1, the EC50 was > 80 µM (inactive).
In the case of Cn1nnnc1Sc1ncnc2scc(-c3cc4ccccc4o3)c12, the EC50 was > 80 µM (inactive).
With Oc1c(C(Nc2ccccn2)c2ccccn2)ccc2cccnc12 (centres undefined) the EC50 was > 80 µM (inactive).
In the case of CC(C)c1ccc(NC(=O)/C(C#N)=C/c2ccncc2)cc1, the EC50 was > 80 µM (inactive).
O=C(NCc1cccnc1)/C(=C/c1ccc(-c2cccc(Cl)c2)o1)S(=O)(=O)c1ccccc1 was tested, and the EC50 was > 80 µM (inactive).
O=C(N/N=C/c1cccc2cccnc12)c1ccccc1O was tested, and the EC50 was > 80 µM (inactive).
With Cc1c(NC(=O)CSc2cccc3cccnc23)c(=O)n(-c2ccccc2)n1C the EC50 was > 80 µM (inactive).
